# Tests used:
# D2 (hD2L receptor) = target: T1, D2 (hD2L receptor) (Homo sapiens, UniProt P14416); experiment: Radioligand binding assay, dopamine D2; conditions: [3H] spiperone 1 nM; read-out: Binding affinity IC50 D2
# T1 construct: purchased BioSignal Packard Inc., Montreal, Canada
# Procedure: (§1) Radioligand binding assays for dopamine receptor family (D1, D2 and D3) were performed according to the protocols provided by the manufacturer of receptor membranes (BioSignal Packard Inc., Montreal, Canada). The radioligands used were [^3H] spiperone (for hD2L and hD3 receptors, 1 nM) and [^3H] YM-09151-2 (hD4.2 receptor, 0.06 nM). Briefly, the buffer used in the D1, D2 and D3 receptor binding assay was 50 mM Tris-HCl (pH 7.4), containing 10 mM MgCl2 and 1 mM EDTA, or 50 mM Tris-HCl (pH 7.4), containing 5 mM MgCl2, 5 mM EDTA, 5 mM KCl, 1.5 mM CaCl2 and 120 mM NaCl. For [^3H] YM-09151-2 receptor binding assays, 50 mM Tris-HCl (pH 7.4) containing 5 mM MgCl2, 5 mM EDTA, 5 mM KCl and 1.5 mM CaCl2, was used as a buffer. Nonspecific binding was determined with haloperidol (10 μM) for D2 and D3 and clozapine (10 μM) for D4 receptors.
# (§2) Competition binding studies were carried out with 7-8 concentrations of the test compound run in duplicate tubes, and isotherms from three assays were calculated by computerized nonlinear regression analysis (GraphPad Prism Program, San Diego, […]) to yield median inhibitory concentration (IC50) values.
# D4 (hD4.2 receptor) = target: T2, D4 (hD4.2 receptor) (Homo sapiens, UniProt P21917, DEL265-296); experiment: Radioligand binding assay, dopamine D4; conditions: [3H] YM-09151-2 0.06 nM; read-out: Binding affinity IC50 D4
# T2 construct: purchased BioSignal Packard Inc., Montreal, Canada
# T2 sequence (P21917 with tags, fused parts or gaps DEL265-296): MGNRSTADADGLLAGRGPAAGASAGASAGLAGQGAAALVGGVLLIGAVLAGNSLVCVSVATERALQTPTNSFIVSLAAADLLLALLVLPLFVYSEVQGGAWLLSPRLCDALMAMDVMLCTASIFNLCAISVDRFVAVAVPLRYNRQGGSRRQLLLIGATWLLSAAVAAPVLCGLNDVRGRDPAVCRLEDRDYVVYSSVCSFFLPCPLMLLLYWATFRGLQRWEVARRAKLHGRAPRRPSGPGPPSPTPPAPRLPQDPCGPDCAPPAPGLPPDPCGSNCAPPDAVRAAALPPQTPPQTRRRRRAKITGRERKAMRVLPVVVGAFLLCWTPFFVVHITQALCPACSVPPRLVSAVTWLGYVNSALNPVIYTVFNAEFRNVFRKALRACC
# Procedure: as §1, §2
# [1] = target: 5-HT7 (human recombinant receptor, CHO-K1) (Homo sapiens, UniProt P34969); experiment: Radioligand binding assay, 5-HT7
# [2] = target: T3, 5-HT1a (human recombinant receptor, CHO-K1) (Homo sapiens, UniProt P08908); experiment: Radioligand binding assay, 5-HT1a
# T3 sequence (P08908 1-422): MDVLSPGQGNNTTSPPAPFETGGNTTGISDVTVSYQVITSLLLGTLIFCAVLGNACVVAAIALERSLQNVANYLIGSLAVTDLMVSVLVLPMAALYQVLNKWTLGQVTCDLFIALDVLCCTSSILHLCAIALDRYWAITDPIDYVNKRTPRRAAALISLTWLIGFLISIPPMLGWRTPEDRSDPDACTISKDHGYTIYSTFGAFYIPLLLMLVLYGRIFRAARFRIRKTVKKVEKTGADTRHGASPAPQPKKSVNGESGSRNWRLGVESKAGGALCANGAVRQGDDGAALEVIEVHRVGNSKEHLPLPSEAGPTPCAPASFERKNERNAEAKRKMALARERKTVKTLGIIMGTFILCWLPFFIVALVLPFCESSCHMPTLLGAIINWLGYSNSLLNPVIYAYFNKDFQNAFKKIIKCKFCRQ
# [3] = target: 5-HT2a (human recombinant receptor, CHO-K1) (Homo sapiens, UniProt P28223); experiment: Radioligand binding assay, 5-HT2a
# [4] = target: T4, 5-HT2c (human recombinant receptor, CHO-K1) (Homo sapiens, UniProt P28335); experiment: Radioligand binding assay, 5-HT2c
# T4 sequence (P28335 33-458): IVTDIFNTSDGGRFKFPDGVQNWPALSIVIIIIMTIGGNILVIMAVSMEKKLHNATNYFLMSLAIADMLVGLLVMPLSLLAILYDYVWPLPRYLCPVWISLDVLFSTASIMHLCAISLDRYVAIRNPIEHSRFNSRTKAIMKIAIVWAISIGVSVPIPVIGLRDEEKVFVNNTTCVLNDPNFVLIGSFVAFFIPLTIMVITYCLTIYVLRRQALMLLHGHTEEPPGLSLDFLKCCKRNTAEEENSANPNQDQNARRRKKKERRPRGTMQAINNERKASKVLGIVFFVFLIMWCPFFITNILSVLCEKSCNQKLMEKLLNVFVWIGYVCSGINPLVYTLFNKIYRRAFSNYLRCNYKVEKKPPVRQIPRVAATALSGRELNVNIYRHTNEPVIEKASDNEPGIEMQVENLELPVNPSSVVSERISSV
# D3 (hD3 receptor) = D3 (hD3 receptor) (Homo sapiens, UniProt P35462); experiment: Radioligand binding assay, dopamine D3
# [5] = target: human serotonin 5-HT6 receptor (Homo sapiens, UniProt P50406); experiment: [3H]LSD binding assay for cloned 5-HT6 receptors
# Sequence of human serotonin 5-HT6 receptor (P50406 whole entry): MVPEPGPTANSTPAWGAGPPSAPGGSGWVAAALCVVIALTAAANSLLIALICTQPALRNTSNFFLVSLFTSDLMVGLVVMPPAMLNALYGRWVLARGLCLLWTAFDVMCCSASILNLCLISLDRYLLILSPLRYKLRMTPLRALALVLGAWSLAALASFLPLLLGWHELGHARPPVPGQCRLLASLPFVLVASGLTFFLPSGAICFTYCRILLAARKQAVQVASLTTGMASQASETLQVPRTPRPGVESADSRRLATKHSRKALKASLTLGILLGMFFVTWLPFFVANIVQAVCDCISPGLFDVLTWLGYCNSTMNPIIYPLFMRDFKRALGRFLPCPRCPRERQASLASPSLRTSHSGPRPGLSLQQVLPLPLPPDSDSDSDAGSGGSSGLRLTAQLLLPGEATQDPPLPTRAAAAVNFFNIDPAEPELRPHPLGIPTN
# Sequence of 5-HT7 (human recombinant receptor, CHO-K1) (P34969 whole entry): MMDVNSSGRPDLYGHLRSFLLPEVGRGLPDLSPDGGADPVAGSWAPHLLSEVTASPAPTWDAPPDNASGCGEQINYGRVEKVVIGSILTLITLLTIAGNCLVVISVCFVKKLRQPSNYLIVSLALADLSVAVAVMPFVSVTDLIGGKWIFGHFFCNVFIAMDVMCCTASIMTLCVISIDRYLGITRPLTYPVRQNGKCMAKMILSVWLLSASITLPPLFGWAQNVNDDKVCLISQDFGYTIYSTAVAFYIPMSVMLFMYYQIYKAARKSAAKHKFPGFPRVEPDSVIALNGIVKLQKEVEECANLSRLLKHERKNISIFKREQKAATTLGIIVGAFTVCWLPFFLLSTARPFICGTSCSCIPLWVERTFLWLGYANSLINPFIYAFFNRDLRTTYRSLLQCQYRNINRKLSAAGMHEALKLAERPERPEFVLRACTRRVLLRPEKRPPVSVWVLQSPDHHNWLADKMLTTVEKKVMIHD
# T1 sequence (P14416 whole entry): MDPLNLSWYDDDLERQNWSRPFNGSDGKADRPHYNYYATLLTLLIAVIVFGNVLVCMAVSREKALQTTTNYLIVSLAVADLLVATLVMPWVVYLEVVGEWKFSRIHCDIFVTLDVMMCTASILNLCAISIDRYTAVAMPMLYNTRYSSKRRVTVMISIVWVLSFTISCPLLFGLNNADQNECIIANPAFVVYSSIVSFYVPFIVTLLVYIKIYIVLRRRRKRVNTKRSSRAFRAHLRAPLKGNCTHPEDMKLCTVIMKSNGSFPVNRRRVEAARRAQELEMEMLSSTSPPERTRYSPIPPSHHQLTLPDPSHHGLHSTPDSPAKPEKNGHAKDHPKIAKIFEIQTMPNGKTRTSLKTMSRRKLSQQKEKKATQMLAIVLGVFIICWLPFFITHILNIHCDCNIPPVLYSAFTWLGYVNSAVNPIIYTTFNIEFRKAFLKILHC
# Sequence of D3 (hD3 receptor) (P35462 whole entry): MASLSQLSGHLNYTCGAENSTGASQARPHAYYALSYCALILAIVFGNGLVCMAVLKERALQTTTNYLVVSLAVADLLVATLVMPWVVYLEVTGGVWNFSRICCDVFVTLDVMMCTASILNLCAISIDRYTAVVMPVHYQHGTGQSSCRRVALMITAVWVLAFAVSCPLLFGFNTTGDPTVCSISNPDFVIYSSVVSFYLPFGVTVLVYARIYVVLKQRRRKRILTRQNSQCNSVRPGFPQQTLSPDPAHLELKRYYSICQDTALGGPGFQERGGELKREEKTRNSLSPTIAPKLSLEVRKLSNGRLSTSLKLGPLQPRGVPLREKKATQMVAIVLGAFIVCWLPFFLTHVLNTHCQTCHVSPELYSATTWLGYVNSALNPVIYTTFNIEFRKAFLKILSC
# Sequence of 5-HT2a (human recombinant receptor, CHO-K1) (P28223 whole entry): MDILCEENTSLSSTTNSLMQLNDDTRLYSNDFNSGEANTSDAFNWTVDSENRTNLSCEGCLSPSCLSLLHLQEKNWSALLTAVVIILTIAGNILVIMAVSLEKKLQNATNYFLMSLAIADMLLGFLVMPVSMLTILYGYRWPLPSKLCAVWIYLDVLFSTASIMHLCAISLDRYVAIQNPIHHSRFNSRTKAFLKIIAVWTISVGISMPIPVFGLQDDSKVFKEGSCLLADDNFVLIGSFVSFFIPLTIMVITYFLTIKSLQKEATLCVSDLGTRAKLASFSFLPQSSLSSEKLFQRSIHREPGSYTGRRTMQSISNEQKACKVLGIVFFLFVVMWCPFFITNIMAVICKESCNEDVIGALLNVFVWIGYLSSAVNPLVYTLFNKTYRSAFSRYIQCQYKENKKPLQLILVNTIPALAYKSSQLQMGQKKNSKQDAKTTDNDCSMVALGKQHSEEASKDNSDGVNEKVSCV
Compound,IC50 (D2 (hD2L receptor)) [nM],IC50 (D4 (hD4.2 receptor)) [nM],melting point [°C],IC50 [1] [nM],IC50 [2] [nM],IC50 [3] [nM],IC50 [4] [nM],IC50 (D3 (hD3 receptor)) [nM],IC50 [5] [nM]
"CCCn1c(=O)c2c(N3CCN(C)CC3)cc(Cl)cc2n(Cc2ccccc2)c1=O [Example 3, 1-benzyl-7-chloro-5-(4-methyl-piperazin-1-yl)-3-propyl-1H-quinazoline-2,4-dione]",> 10000,> 10000,120 to 121,> 10000,> 10000,718,3760,2110,2
"CCCCCCCCn1c(=O)c2c(N3CCN(C)CC3)cc(Cl)cc2n(Cc2ccccc2)c1=O [Example 7, 1-benzyl-7-chloro-5-(4-methyl-piperazin-1-yl)-3-octyl-1H-quinazoline-2,4-dione]",2760,> 10000,78 to 80,2560,2160,1140,1710,606,1.5
"CN1CCN(c2cc(Cl)cc3c2c(=O)n(Cc2ccccc2F)c(=O)n3Cc2ccccc2)CC1 [Example 11, 1-benzyl-7-chloro-3-(2-fluoro-benzyl)-5-(4-methyl-piperazin-1-yl)-1H-quinazoline-2,4-dione]",> 10000,> 10000,147 to 149,4840,1510,463,176,2660,1.2
"CN1CCN(c2cc(Cl)cc3c2c(=O)n(Cc2cccc(F)c2)c(=O)n3Cc2ccccc2)CC1 [Example 12, 1-benzyl-7-chloro-3-(3-fluoro-benzyl)-5-(4-methyl-piperazin-1-yl)-1H-quinazoline-2,4-dione]",> 10000,> 10000,148 to 150,1670,718,622,1060,490,1.9
"CN1CCN(c2cc(Cl)cc3c2c(=O)n(Cc2ccccc2Br)c(=O)n3Cc2ccccc2)CC1 [Example 14, 1-benzyl-3-(2-bromo-benzyl)-7-chloro-5-(4-methyl-piperazin-1-yl)-1H-quinazoline-2,4-dione]",3320,> 10000,91 to 93,5940,1080,394,728,480,0.9
"CN1CCN(c2cc(Cl)cc3c2c(=O)n(Cc2ccccc2Cl)c(=O)n3Cc2ccccc2)CC1 [Example 17, 1-benzyl-7-chloro-3-(2-chloro-benzyl)-5-(4-methyl-piperazin-1-yl)-1H-quinazoline-2,4-dione]",> 10000,> 10000,87 to 92,2180,3280,169,512,138,0.5
"CN1CCN(c2cc(Cl)cc3c2c(=O)n(Cc2cccc(Cl)c2)c(=O)n3Cc2ccccc2)CC1 [Example 18, 1-benzyl-7-chloro-3-(3-chloro-benzyl)-5-(4-methyl-piperazin-1-yl)-1H-quinazoline-2,4-dione]",7320,> 10000,165 to 169,1880,1780,1380,748,339,2.1
"CN1CCN(c2cc(Cl)cc3c2c(=O)n(Cc2ccc(Cl)cc2)c(=O)n3Cc2ccccc2)CC1 [Example 19, 1-benzyl-7-chloro-3-(4-chloro-benzyl)-5-(4-methyl-piperazin-1-yl)-1H-quinazoline-2,4-dione]",7740,> 10000,92 to 97,2210,3060,1100,321,1010,3.1
"CN1CCN(c2cc(Cl)cc3c2c(=O)n(Cc2cccc(I)c2)c(=O)n3Cc2ccccc2)CC1 [Example 20, 1-benzyl-7-chloro-3-(3-iodo-benzyl)-5-(4-methyl-piperazin-1-yl)-1H-quinazoline-2,4-dione]",> 10000,> 10000,182 to 184,1920,3530,912,1050,615,1.6
"Cc1ccccc1Cn1c(=O)c2c(N3CCN(C)CC3)cc(Cl)cc2n(Cc2ccccc2)c1=O [Example 22, 1-benzyl-7-chloro-3-(2-methyl-benzyl)-5-(4-methyl-piperazin-1-yl)-1H-quinazoline-2,4-dione]",> 10000,> 10000,92 to 95,3970,5780,663,216,1540,2.1
"Cc1ccc(Cn2c(=O)c3c(N4CCN(C)CC4)cc(Cl)cc3n(Cc3ccccc3)c2=O)cc1 [Example 24, 1-benzyl-7-chloro-3-(4-methyl-benzyl)-5-(4-methyl-piperazin-1-yl)-1H-quinazoline-2,4-dione]",> 10000,> 10000,92 to 97,> 10000,3210,733,599,435,2
"COc1ccccc1Cn1c(=O)c2c(N3CCN(C)CC3)cc(Cl)cc2n(Cc2ccccc2)c1=O [Example 25, 1-benzyl-7-chloro-3-(2-methoxy-benzyl)-5-(4-methyl-piperazin-1-yl)-1H-quinazoline-2,4-dione]",> 10000,> 10000,91 to 96,> 10000,7080,916,925,1330,1.9
"O=c1c2c(N3CCNCC3)cc(Cl)cc2n(Cc2ccccc2)c(=O)n1Cc1ccccc1O [Example 65, 1-benzyl-7-chloro-3-(2-hydroxy-benzyl)-5-piperazin-1-yl-1H-quinazoline-2,4-dione]",,,113 to 130,,,,,,5.9
"O=c1c2c(N3CCNCC3)cc(Cl)cc2n(Cc2ccccc2)c(=O)n1Cc1ccccc1[N+](=O)[O-] [Example 66, 1-benzyl-7-chloro-3-(2-nitro-benzyl)-5-piperazin-1-yl-1H-quinazoline-2,4-dione]",,,129 to 134,,,,,,5.7

# Reference: US20090203708A1, “NOVEL SUBSTITUTED-1-H-QUINAZOLINE-2,4-DIONE DERIVATIVES, PREPARATION METHOD THEREOF AND PHARMACEUTICAL COMPOSITION CONTAINING THE SAME” (Korea Research Institute of Chemical Technology, priority 2006, published 2009)
